Residue numbers refer to the chain shown, from its start.
Key:
[1] = molecular target: T1, Epac1-BRET sensor CAMYEL (Homo sapiens, UniProt O95398, F824A/T823A); experiment: CAMYEL Epac1-BRET sensor assay (cAMP-induced conformational change); type: biochemical; settings: for inhibitory activity on Epac1 activation, structure-activity comments: CAMYEL assay, compared with AM-001; for remaining activity at 20 µM: read-out: BRET ratio variation (% of 100 μM cAMP alone)
T1 construct: made in house; host or cells: Prokaryotic expression vector pQE30-CAMYEL; used as cell extract
T1 sequence (O95398 191-923 T823A/F824A limits assumed): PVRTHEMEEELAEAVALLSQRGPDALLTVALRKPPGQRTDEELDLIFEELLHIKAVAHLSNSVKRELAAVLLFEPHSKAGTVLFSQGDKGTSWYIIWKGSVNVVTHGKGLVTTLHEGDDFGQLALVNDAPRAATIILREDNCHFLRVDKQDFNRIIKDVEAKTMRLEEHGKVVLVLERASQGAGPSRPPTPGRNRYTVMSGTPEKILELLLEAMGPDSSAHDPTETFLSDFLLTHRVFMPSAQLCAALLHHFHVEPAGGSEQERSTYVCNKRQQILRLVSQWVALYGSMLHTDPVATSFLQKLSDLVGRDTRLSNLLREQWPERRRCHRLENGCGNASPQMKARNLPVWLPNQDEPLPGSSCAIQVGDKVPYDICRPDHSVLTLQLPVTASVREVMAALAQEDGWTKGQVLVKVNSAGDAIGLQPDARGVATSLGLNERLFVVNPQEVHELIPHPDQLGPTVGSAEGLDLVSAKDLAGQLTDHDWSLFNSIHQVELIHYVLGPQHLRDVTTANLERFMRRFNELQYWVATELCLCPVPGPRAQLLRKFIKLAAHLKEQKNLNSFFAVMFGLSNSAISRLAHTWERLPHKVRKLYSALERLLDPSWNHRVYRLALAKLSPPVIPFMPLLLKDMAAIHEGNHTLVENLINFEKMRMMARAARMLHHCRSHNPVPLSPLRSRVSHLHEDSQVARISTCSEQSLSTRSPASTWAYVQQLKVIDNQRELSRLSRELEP

[2] = molecular target: T2, Epac1 (Homo sapiens, UniProt O95398); experiment: Rap1-GTP in HEK293 cells transfected with Epac1; type: cell-based; design: expressed in transfected cells; host or cells: HEK293; settings: 10 min; for inhibition of Epac1-induced Rap1 activation: 20 μM, 30 min preincubation, 8-CPT-AM 10 μM
T2 sequence (O95398 1-923): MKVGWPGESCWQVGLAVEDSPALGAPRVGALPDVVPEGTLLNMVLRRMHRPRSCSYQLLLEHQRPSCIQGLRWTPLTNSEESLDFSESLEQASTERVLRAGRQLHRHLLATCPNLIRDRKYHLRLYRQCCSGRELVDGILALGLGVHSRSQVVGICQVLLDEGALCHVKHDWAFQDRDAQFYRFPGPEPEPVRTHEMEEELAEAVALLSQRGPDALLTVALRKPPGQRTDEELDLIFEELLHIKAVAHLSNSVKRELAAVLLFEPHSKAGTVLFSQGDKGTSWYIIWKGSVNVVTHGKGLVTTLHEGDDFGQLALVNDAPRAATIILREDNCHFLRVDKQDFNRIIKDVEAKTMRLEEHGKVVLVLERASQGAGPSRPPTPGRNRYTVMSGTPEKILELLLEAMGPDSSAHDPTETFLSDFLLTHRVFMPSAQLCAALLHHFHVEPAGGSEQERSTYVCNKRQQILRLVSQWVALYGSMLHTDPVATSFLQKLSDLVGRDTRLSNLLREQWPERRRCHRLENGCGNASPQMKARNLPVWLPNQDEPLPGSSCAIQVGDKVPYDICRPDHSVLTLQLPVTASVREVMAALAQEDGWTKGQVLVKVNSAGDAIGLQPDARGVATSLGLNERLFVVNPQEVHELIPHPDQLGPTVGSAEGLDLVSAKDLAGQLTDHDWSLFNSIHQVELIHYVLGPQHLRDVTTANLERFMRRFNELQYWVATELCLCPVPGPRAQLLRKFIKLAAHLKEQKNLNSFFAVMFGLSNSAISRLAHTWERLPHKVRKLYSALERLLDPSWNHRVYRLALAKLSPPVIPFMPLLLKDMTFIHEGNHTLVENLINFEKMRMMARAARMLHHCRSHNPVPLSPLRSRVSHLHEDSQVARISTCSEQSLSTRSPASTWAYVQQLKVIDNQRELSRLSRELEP
Experimental: FIGS. 9-13. Amounts of Rap1-GTP (n=5 in each group, mean±S.E.M) were determined in HEK293 cells transfected with Epac1 (FIGS. 9-11), Epac2A (FIG. 12) or Epac2B (FIG. 13). Cells were preincubated or not with AM-001 (FIGS. 9, 12, and 13), AM-002 (FIG. 10) or AM-003 (FIG. 11) (20 μM, 30 min) and were then treated or not with 8-CPT-AM (10 μM for Epac1 activation and 20 μM for Epac2A activation) or S-220 (50 μM for Epac2B activation) for 10 min. ESI-05 was used as positive control of Epac2A inhibition. Representative immunoblots are shown. […], *[…], ***p<0.001, ****p<0.0001, versus indicated values, one way ANOVA, Bonferroni comparison test.
Human Embryonic Kidney cells line (HEK293): HEK293 cells were maintained is in minimal essential medium with FBS (10%) and penicillin-streptomycin (1%). All media, sera, and antibiotics used in cell culture were purchased from Invitrogen.
The human Epac1/Epac2 expression vector was a gift from Dr J. L. Bos. Cells were transfected using Lipofectamine 2000 (Invitrogen) according to the manufacturer's instructions. HEK293 cells were maintained in MEM with FBS (Foetal Bovine Serum; 10%) and penicillin-streptomycin (1%). All media, sera and antibiotics used in cell culture were purchased from Invitrogen (Cergy Pontoise, France). Transient transfection experiments were performed with Lipofectamine 2000 (Invitrogen Life Technologies) in the presence of various amounts of plasmid constructs according to the manufacturer's instructions.
This cell line is commonly used for the evaluation of Epac pharmacological modulators on the cellular signaling of ectopically expressed Epac1 and Epac2 isoforms. […] Next, the inventors investigated the effect of 8-CPT-AM on the two Epac2 splice variants, Epac2A and Epac2B (FIGS. 12-13).

[3] = molecular target: T3, Epac1 (Homo sapiens, UniProt O95398); experiment: biochemical
T3 sequence (O95398 191-923 limits assumed): T1 sequence (O95398 191-923 T823A/F824A limits assumed) with A633T, A634F
Text: (§1) FIGS. 4-8. […] Variations of relative fluorescence units (RFU) were studied as a function of time and fitted to single exponentials.

[4] = molecular target: T4, Epac2 (Homo sapiens, UniProt Q8WZA2); experiment: Epac GEF activity assay (b-GDP dissociation from recombinant Rap1), Epac2; type: biochemical
T4 sequence (Q8WZA2 1-867 isoform Q8WZA2-3): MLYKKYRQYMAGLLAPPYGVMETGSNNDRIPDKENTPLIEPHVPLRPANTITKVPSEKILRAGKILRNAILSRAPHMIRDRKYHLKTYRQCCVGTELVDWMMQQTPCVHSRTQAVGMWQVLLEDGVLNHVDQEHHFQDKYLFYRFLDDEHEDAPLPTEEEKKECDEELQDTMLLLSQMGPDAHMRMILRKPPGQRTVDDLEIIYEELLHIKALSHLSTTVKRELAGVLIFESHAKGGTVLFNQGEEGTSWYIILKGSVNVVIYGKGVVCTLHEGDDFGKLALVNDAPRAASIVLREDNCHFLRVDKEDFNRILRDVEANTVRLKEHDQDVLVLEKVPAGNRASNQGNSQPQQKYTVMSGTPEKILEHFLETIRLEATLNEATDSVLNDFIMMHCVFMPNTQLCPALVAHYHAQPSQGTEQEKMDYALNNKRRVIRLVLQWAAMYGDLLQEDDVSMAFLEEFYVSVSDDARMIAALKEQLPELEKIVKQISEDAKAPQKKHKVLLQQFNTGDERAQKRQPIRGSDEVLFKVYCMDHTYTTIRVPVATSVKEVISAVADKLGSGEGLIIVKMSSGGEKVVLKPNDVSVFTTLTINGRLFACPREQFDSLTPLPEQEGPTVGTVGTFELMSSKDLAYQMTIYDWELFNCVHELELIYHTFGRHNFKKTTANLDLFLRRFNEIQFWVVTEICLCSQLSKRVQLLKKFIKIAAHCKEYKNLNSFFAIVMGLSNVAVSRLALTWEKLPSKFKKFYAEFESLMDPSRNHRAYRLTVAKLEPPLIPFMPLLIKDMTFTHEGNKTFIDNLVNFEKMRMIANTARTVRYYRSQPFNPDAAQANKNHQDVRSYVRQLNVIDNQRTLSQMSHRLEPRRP
Text: as §1

[5] = system: mice; settings: single i.v. bolus 8 mg/kg 5 min before reperfusion; 45 min occlusion, 24 h reperfusion
Experimental: Statistical significance was determined by two-way ANOVA followed by Bonferroni post-test or t-test. *p<0.01, **p<0.01, ***p<0.001, versus indicated values
Mice were anesthetized with intraperitoneal ketamine (60 mg/kg) and xylazine (6 mg/kg), intubated and ventilated mechanically. Anesthesia was maintained throughout the chirurgical procedure with 1.5% isoflurane. Body temperature was maintained at 37° C. A left thoracotomy was performed in order to enable coronary artery occlusion with a 7-0 Prolene thread placed around the left coronary artery for 45 min, followed by 24 h of reperfusion. […] Myocardial ischemia was confirmed by the presence of regional cyanosis. Reperfusion was confirmed by visualization of a hyperemic response. At this point, the chest was closed in layers. 24 h after reperfusion, mice were anesthetized again, the coronary artery was reoccluded at the previous site, and the heart was excised after Evans blue perfusion. The area at risk and the infarct area were respectively determined by Evans blue and 2,3,5-triphenyltetrazolium chloride (TTC) staining. The area at risk was identified as the non-blue region and expressed as a percentage of the left ventricle weight. The infarcted area was identified as the TTC negative zone and expressed as a percentage of area at risk.

Row | SMILES | inhibitory activity on Epac1 activation, structure-activity comments [1] | remaining activity at 20 µM [1] [%] | other results
1 | CC(C)NC(=O)c1sc2nc(-c3cccs3)cc(-c3ccc(F)cc3)c2c1N [AM-003, reference compound] | abolished the inhibitory effect | 100 | inhibition of Epac1-induced Rap1 activation [2]: inactive
2 | Nc1c(C(=O)Nc2ccccc2)sc2nc(-c3cccs3)cc(-c3ccc(F)cc3)c12 [AM-005] | no significant effect on the inhibitory potency | 46.9 | –
3 | Nc1c(C(=O)Nc2ccc(F)cc2)sc2nc(-c3cccs3)ccc12 [AM-009] | decreased but not abolished | 82.4 | –
4 | Nc1c(C(=O)Nc2ccc(F)cc2)sc2nc3c(c(-c4ccccc4)c12)CCCC3 [AM-007] | – | 80.5 | –
5 | Cc1cc(C)c2c(N)c(C(=O)Nc3ccc(F)cc3)sc2n1 [AM-010, reference compound] | low activity | 101 | –
6 | COC1C2OP(O)(=S)OCC2OC1n1c(Sc2ccc(Cl)cc2)nc2c(N)ncnc21 (stereo not drawn) [Sp-8-CPT, 8-(4-Chlorophenylthio)-2′-O-methyladenosine-3′,5′-cyclic monophosphorothioate, Sp-isomer] | – | – | EC50 [3]: 7.5 ± 1.1 µM; Vmax of Sp-8-CPT-activated Epac1 relative to cAMP-activated Epac1 [3]: 2.5 fold; apparent affinity of Epac1, Sp-8-CPT relative to cAMP ([3]; higher for Sp-8-CPT than for cAMP): 1.7 times; EC50 [4]: 5.6 ± 1.1 µM
7 | CO[C@@H]1[C@@H]2OP(=O)(OCOC(C)=O)OC[C@H]2O[C@H]1n1c(Sc2ccc(Cl)cc2)nc2c(N)ncnc21 (stereo partly drawn) [8-CPT-AM, 8-(4-chlorophenylthio)-2′-O-methyladenosine-3′,5′-cyclic monophosphate, acetoxymethyl ester] | – | – | activation of Rap1 by agonist ([2]; cells overexpressing Epac1, 10 μM): robust activation of Rap1
8 | C[C@@H]1CCc2c(cc(Br)c(F)c2Br)N1C=O [(R)-CE3F4, reference compound] | – | – | IC50 (half-maximal inhibitory concentration), BRET sensor ([1]; not modified by increasing concentrations of cAMP): lower IC50 than AM-001; effect on Epac1 GEF (exchange) activity ([3]; 30 μM Sp-8-CPT, 20 μM inhibitor): reduced; ratio of infarct size to area-at-risk [5]: failed to reduce infarct size
9 | NC(=O)c1sc2nc(-c3cccs3)cc(-c3ccc(F)cc3)c2c1N [AM-006] | decreased but not abolished | 74 | –
10 | Nc1ncnc2c1ncn2[C@@H]1O[C@@H]2COP(=O)(O)O[C@H]2[C@H]1O [cAMP, cyclic AMP, reference compound] | – | – | EC50 [4]: 2.8 ± 1.1 µM
11 | Cc1cc(-c2ccccc2)c2c(N)c(C(=O)Nc3ccccc3)sc2n1 [AM-008] | – | 82.2 | –
12 | Nc1c(C(=O)Nc2ccccc2)sc2nc(-c3cccs3)cc(-c3ccccc3)c12 [AM-004] | no significant effect on the inhibitory potency | 47 | –
13 | O=c1c2sc3nc(-c4cccs4)cc(-c4ccccc4)c3c2ncn1-c1ccccc1 [AM-002, reference compound] | no significant inhibitory activity | 93.6 | inhibition of Epac1-induced Rap1 activation [2]: inactive
